The test system of this test is HIV-1 single-round infectious reporter virus. The test is described as follows: microbe, parasite or virus in culture. It counts as cell-based. The conditions noted are these: for EC50: Human immunodeficiency virus 1, HeLa-CD4/CCR5, 72 h, read-out: EC50 Group from Table 1; for inhibition at 10 µM: Human immunodeficiency virus 1, HeLa-CD4/CCR5, read-out: % Inhibition @ 10 uM.

Where only a bound is given, the exact number is not on record here.

By EC50 is commonly meant the concentration that produces a half-maximal response. On to `O=C(C(=O)N1CCN(C(=O)c2ccccc2)CC1)c1c[nH]c2c(-c3nc[nH]n3)ccc(F)c12` [Example 111], for which the EC50 was less than 1000 nM.

Take `CCN(CC)CCn1nnc(-c2ccc(F)c3c(C(=O)C(=O)N4CCN(C(=O)c5ccccc5)CC4)c[nH]c23)n1` [Example 114]: the 50% effective concentration (EC50) is less than 1000 nM.

As to `N=C(Nc1cccnc1N)c1ccc(F)c2c(C(=O)C(=O)N3CCN(C(=O)c4ccccc4)CC3)c[nH]c12` [Example 166], the EC50 was less than 1000 nM.

Take `O=C(C(=O)N1CCN(C(=O)c2cccc([N+](=O)[O-])c2)CC1)c1c[nH]c2c(-c3ncon3)ccc(F)c12` [Example 150A]: the concentration giving a half-maximal response (EC50) is less than 1000 nM.

A word on the inhibition: it is the percentage by which the read-out fell short of the control. For the compound `O=C(C(=O)N1CCN(C(=O)c2ccccc2)CC1)c1c[nH]c2c(-c3cccnc3)ccc(F)c12` [Example 6], the EC50 is less than 1000 nM and the inhibition at 10 µM was more than 98%.

Regarding `COC(CNC(=O)c1ccc(F)c2c(C(=O)C(=O)N3CCN(C(=O)c4ccccc4)CC3)c[nH]c12)OC` [Example 72], the EC50 was less than 1000 nM and the inhibition at 10 µM is more than 98%.

Regarding `O=C(C(=O)N1CCN(C(=O)c2ccccc2)CC1)c1c[nH]c2c(-c3nc4cnccc4[nH]3)ccc(F)c12` [Example 164], the EC50 was less than 1000 nM.

As to `O=C(C(=O)N1CCN(C(=O)c2ccccc2)CC1)c1c[nH]c2c(-c3cccs3)ccc(F)c12` [Example 12], the EC50 was less than 1000 nM and the inhibition at 10 µM was more than 98%.

Turning to `CS(=O)(=O)NC(=O)c1cccc2c(C(=O)C(=O)N3CCN(C(=O)c4ccccc4)CC3)c[nH]c12` [Example 61], the EC50 lay in the range of 1000 to 5000 nM and the inhibition at 10 µM stood at 75%.

Consider `O=C(C(=O)N1CCN(C(=O)c2ccccc2)CC1)c1c[nH]c2c(-c3ncon3)ccc(F)c12` [Example 79], for which the EC50 was less than 1000 nM and the inhibition at 10 µM was more than 98%.

As for `COC(=O)CNc1nc(-c2ccc(F)c3c(C(=O)C(=O)N4CCN(C(=O)c5ccccc5)CC4)c[nH]c23)no1` [Example 140], the EC50 was less than 1000 nM.

In the case of `C[C@@H]1CN(C(=O)c2ccccc2)CCN1C(=O)C(=O)c1c[nH]c2c(-c3noc(NC4CCC4)n3)ccc(F)c12` [Example 161], the half-maximal effective concentration (EC50) was less than 1000 nM.

For `CNC(=O)c1cccc2c(C(=O)C(=O)N3CCN(C(=O)c4ccccc4)C[C@H]3C)c[nH]c12` [Example 64], the EC50 was less than 1000 nM and the inhibition at 10 µM is more than 98%.

In the case of `CCn1nnc(-c2ccc(F)c3c(C(=O)C(=O)N4CCN(C(=O)c5ccccc5)CC4)c[nH]c23)n1` [Example 23], the 50% effective concentration (EC50) was less than 1000 nM and the inhibition at 10 µM is more than 98%.

As for `C[C@@H]1CN(C(=O)c2ccccc2)CCN1C(=O)C(=O)C1CNc2c(C(=O)O)cccc21` (stereo partly drawn) [Example 215, 1-benzoyl-3-(R)-methyl-4-[(7-carboxyindolin-3-yl)-2-oxoacetyl]piperazine], the EC50 was less than 1000 nM.

In the case of `COC(=O)Cc1nc(-c2ccc(F)c3c(C(=O)C(=O)N4CCN(C(=O)c5ccccc5)CC4)c[nH]c23)no1` [Example 98], the EC50 was less than 1000 nM.

For the compound `O=C(C(=O)N1CCN(C(=O)c2ccccc2)CC1)c1c[nH]c2c(C3=NCCN3)ccc(F)c12` [Example 163], the EC50 was less than 1000 nM.

Take `COc1ccc(-c2cc3ccccc3s2)c2[nH]cc(C(=O)C(=O)N3CCN(C(=O)c4ccccc4)CC3)c12` [Example 19]: the EC50 is less than 1000 nM and the inhibition at 10 µM was more than 98%.

`O=C(O)Cn1nnc(-c2ccc(F)c3c(C(=O)C(=O)N4CCN(C(=O)c5ccccc5)CC4)c[nH]c23)n1` [Example 70]: the EC50 is less than 1000 nM and the inhibition at 10 µM is more than 98%.

`CN(C)CCNC(=O)c1ccc(F)c2c(C(=O)C(=O)N3CCN(C(=O)c4ccccc4)CC3)c[nH]c12` [Example 44]: the half-maximal effective concentration (EC50) was less than 1000 nM and the inhibition at 10 µM stood at 97%.

In the case of `NNC(=O)c1ccc(F)c2c(C(=O)C(=O)N3CCN(C(=O)c4ccccc4)CC3)c[nH]c12` [Example 92], the EC50 is less than 1000 nM.

In the case of `CC(=O)OCn1nnc(-c2ccc(F)c3c(C(=O)C(=O)N4CCN(C(=O)c5ccccc5)CC4)c[nH]c23)n1` [Example 108], the concentration for a half-maximal effect (EC50) was less than 1000 nM.

On to `O=C(C(=O)N1CCN(C(=O)c2ccccc2)CC1)c1c[nH]c2c(-c3noc(C(Cl)(Cl)Cl)n3)ccc(F)c12` [Example 81], for which the EC50 was less than 1000 nM.

On to `O=C(O)CO/N=C/c1ccc(F)c2c(C(=O)C(=O)N3CCN(C(=O)c4ccccc4)CC3)c[nH]c12` [Example 31], for which the EC50 is less than 1000 nM and the inhibition at 10 µM is more than 98%.

Consider `CNc1nc(-c2ccc(F)c3c(C(=O)C(=O)N4CCN(C(=O)c5ccccc5)CC4)c[nH]c23)no1` [Example 157], for which the EC50 is less than 1000 nM.

As to `COc1ccc(-c2ccc(F)cc2)c2[nH]cc(C(=O)C(=O)N3CCN(C(=O)c4ccccc4)CC3)c12` [Example 3], the EC50 is less than 1000 nM and the inhibition at 10 µM is more than 98%.

Regarding `O=C(C(=O)N1CCN(C(=O)c2ccccc2)CC1)c1c[nH]c2c(-c3ccccc3)ccc(F)c12` [Example 1], the EC50 is less than 1000 nM and the inhibition at 10 µM is more than 98%.

`C[C@@H]1CN(C(=O)c2ccccc2)CCN1C(=O)C(=O)c1c[nH]c2c(-c3noc(N)n3)ccc(F)c12` [Example 155]: the 50% effective concentration (EC50) was less than 1000 nM.

On to `O=C(NCCc1c[nH]cn1)c1ccc(F)c2c(C(=O)C(=O)N3CCN(C(=O)c4ccccc4)CC3)c[nH]c12` [Example 49], for which the concentration giving a half-maximal response (EC50) is less than 1000 nM and the inhibition at 10 µM was more than 98%.

`O=C(C(=O)N1CCN(C(=O)c2c(F)cccc2F)CC1)c1c[nH]c2c(-c3ncon3)ccc(F)c12` [Example 150B]: the concentration for a half-maximal effect (EC50) is less than 1000 nM.

Regarding `C[C@@H]1CN(C(=O)c2ccccn2)CCN1C(=O)C(=O)c1c[nH]c2c(-c3noc(N)n3)ccc(F)c12` [Example 190], the EC50 is less than 1000 nM.

Consider `CC1CN(C(=O)C(=O)c2c[nH]c3c(-c4ncon4)ccc(F)c23)CCN1C(=O)c1ccccc1` (centres unmarked) [Example 123], for which the concentration giving a half-maximal response (EC50) was less than 1000 nM.

Take `CC(C)(C)OC(=O)N1C=NNC(c2ccc(F)c3c(C(=O)C(=O)N4CCN(C(=O)c5ccccc5)CC4)c[nH]c23)=N1` [Example 132]: the 50% effective concentration (EC50) is less than 1000 nM.

Regarding `CCN(CC)C(=O)COC(=O)c1cc(-c2ccc(F)c3c(C(=O)C(=O)N4CCN(C(=O)c5ccccc5)CC4)c[nH]c23)n[nH]1` [Example 120], the 50% effective concentration (EC50) is less than 1000 nM.

`N/C(=N\O)c1ccc(F)c2c(C(=O)C(=O)N3CCN(C(=O)c4ccccn4)CC3)c[nH]c12` [Example 183]: the EC50 was less than 1000 nM.

Turning to `COc1ccc(C(N)=O)c2[nH]cc(C(=O)C(=O)N3CCN(C(=O)c4ccccc4)CC3)c12` [Example 148], the EC50 is less than 1000 nM.

Regarding `Cc1n[nH]c(-c2ccc(F)c3c(C(=O)C(=O)N4CCN(C(=O)c5ccccc5)CC4)c[nH]c23)n1` [Example 78], the 50% effective concentration (EC50) is less than 1000 nM.

Turning to `O=C(C(=O)N1CCN(C(=O)c2ccccc2)CC1)c1c[nH]c2c(-c3noc(CCl)n3)ccc(F)c12` [Example 97], the EC50 is less than 1000 nM.

For `N=C(NC1CC1)c1ccc(F)c2c(C(=O)C(=O)N3CCN(C(=O)c4ccccc4)CC3)c[nH]c12` [Example 75], the EC50 is less than 1000 nM and the inhibition at 10 µM is more than 98%.

For `C=CCn1nnc(-c2ccc(F)c3c(C(=O)C(=O)N4CCN(C(=O)c5ccccc5)CC4)c[nH]c23)n1` [Example 26], the EC50 is less than 1000 nM and the inhibition at 10 µM is more than 98%.

Take `CCN(CC)CCNC(=O)c1cccc2c(C(=O)C(=O)N3CCN(C(=O)c4ccccc4)C[C@H]3C)c[nH]c12` [Example 66]: the EC50 was less than 1000 nM and the inhibition at 10 µM was determined as 98%.

`O=C(C(=O)N1CCN(C(=O)c2ccccc2)CC1)c1c[nH]c2c(-c3nc4ccccc4[nH]3)ccc(F)c12` [Example 76]: the 50% effective concentration (EC50) is less than 1000 nM and the inhibition at 10 µM was more than 98%.

Consider `Cc1cc(NC(=O)c2ccc(F)c3c(C(=O)C(=O)N4CCN(C(=O)c5ccccc5)CC4)c[nH]c23)on1` [Example 37], for which the concentration giving a half-maximal response (EC50) is less than 1000 nM and the inhibition at 10 µM is more than 98%.

For `O=C(C(=O)N1CCN(C(=O)c2ccccc2)CC1)c1c[nH]c2c(-c3noc(NC4CC4)n3)ccc(F)c12` [Example 82], the EC50 was less than 1000 nM and the inhibition at 10 µM was more than 98%.

On to `C[C@@H]1CN(C(=O)c2ccccc2)CCN1C(=O)C(=O)c1c[nH]c2c(-c3noc(C(F)(F)F)n3)ccc(F)c12` [Example 180], for which the EC50 was less than 1000 nM.

Take `COc1ccc(-c2nccs2)c2[nH]cc(C(=O)C(=O)N3CCN(C(=O)c4ccccc4)CC3)c12` [Example 15]: the EC50 is less than 1000 nM and the inhibition at 10 µM is more than 98%.

For `O=C(C(=O)N1CCN(C(=O)c2ccccn2)CC1)c1c[nH]c2c(-c3noc(C(Cl)(Cl)Cl)n3)ccc(F)c12` [Example 188], the EC50 was less than 1000 nM.

Regarding `N#CCCCn1nnc(-c2ccc(F)c3c(C(=O)C(=O)N4CCN(C(=O)c5ccccc5)CC4)c[nH]c23)n1` [Example 115], the EC50 is less than 1000 nM.

In the case of `O=C(O)c1cc(-c2ccc(F)c3c(C(=O)C(=O)N4CCN(C(=O)c5ccccc5)CC4)c[nH]c23)[nH]n1` [Example 88], the EC50 was less than 1000 nM.

As to `CCCn1nnc(-c2ccc(F)c3c(C(=O)C(=O)N4CCN(C(=O)c5ccccc5)CC4)c[nH]c23)n1` [Example 24], the EC50 was less than 1000 nM and the inhibition at 10 µM is more than 98%.

Take `CNC(=O)Cn1cnc(-c2ccc(F)c3c(C(=O)C(=O)N4CCN(C(=O)c5ccccc5)CC4)c[nH]c23)n1` [Example 145]: the EC50 was less than 1000 nM.

As for `O=C(C(=O)N1CCN(C(=O)c2ccccc2)CC1)c1c[nH]c2c(-n3cncn3)ccc(F)c12` [Example 118], the 50% effective concentration (EC50) was less than 1000 nM.

For `COc1ccc(/C=N/O)c2[nH]cc(C(=O)C(=O)N3CCN(C(=O)c4ccccc4)CC3)c12` [Example 124], the EC50 was less than 1000 nM.

In the case of `C[C@@H]1CN(C(=O)c2ccccc2)CCN1C(=O)C(=O)c1c[nH]c2c(-c3noc(=O)[nH]3)ccc(F)c12` [Example 176], the EC50 is less than 1000 nM.

`CNC(=O)c1ccc(F)c2c(C(=O)C(=O)N3CCN(C(=O)c4ccccc4)CC3)c[nH]c12` [Example 47]: the EC50 is less than 1000 nM and the inhibition at 10 µM was more than 98%.

Regarding `CONC(=O)c1ccc(F)c2c(C(=O)C(=O)N3CCN(C(=O)c4ccccc4)CC3)c[nH]c12` [Example 46], the half-maximal effective concentration (EC50) is less than 1000 nM and the inhibition at 10 µM is more than 98%.

The values are drawn from patent publication US6573262B2, “Composition and antiviral activity of substituted indoleoxoacetic piperazine derivatives” (priority 2000, dated 2003).
